Data: patent US20250018019A1, “TREATMENT OF INTERFERON DRIVEN INFLAMMATION” (The Provost, Fellows, Foundation Scholars and the other …, priority 2023, published 2025)
Where a name gives a salt, the structure may show the parent alone.

How the values were obtained:
BMDMs = experiment: RNA sequencing (GSEA, ORA) of BMDMs; type: cell-based, mouse; details: LPS 4 h; for ERK1/2 cascade and PI3K signalling (shared transcriptomic changes) / amino acid metabolism and transport, and autophagy transcripts: BMDMs pre-treated
Method: All compounds used DMSO as a vehicle except for 4-hydroxy tamoxifen (EtOH), NAC (PBS), and AOAA for tracing experiments (Media). LPS was used at a concentration of 100 ng/ml for indicated timepoints (2, 3, 4, 6, 8, 24, 48 h). FHIN1 (10 or 20 μM), MMF (50 or 100 μM), DMF (25 μM), AOAA (5 mM), oligomycin (10 μM), CCCP (50 μM) NAC (1 mM), and IMT1 (10 μM) pre-treatments were performed for 3 h prior the addition of LPS. Cells were treated with valinomycin (10 nM) 15 mins before LPS stimulation. Anti-CD210 or IgG control (10 μg/ml) antibodies were added to cells 1 h prior to LPS stimulation. Recombinant mouse IL-10 protein (100 ng/ml) was added to cells at the same time as LPS. Cells were treated with IFN-B1 (220 ng/ml) for 3 h. Cells were treated with C-178 (1 μM) 1 h prior to LPS stimulation or transfection with 2′3′-cGAMP (1.5 μg/ml) for 4 hrs to achieve cGAS-STING activation. Cells were treated with ODN 2088 (1 μM) for 1 hr prior to LPS stimulation or transfection with CPG ODN 1826 (1.5 μg/ml) to achieve TLR9 activation. 3 different timepoints of 4-hydroxy tamoxifen (TAM) (600 nM or 2 μM) or EtOH treatment were performed-these are specified in the individual figure legends. For ‘48 h’ treatments EtOH/TAM was added on day 5 of 6 during the BMDM differentiation protocol. On day 6 they were plated with EtOH/TAM (left overnight) and treated the following day. For ‘72 h’ treatments EtOH/TAM was added on day […] of 6 during the BMDM differentiation protocol. On day 6 they were plated with EtOH/TAM (left overnight) and treated the following day. For ‘96 h’ treatments EtOH/TAM was added on day […] of 6 during the BMDM differentiation protocol. On day 6 they were plated with EtOH/TAM and treated 2 days later.
BMDMs (3 independent mice) were treated as indicated and RNA was extracted as previously detailed. mRNA was extracted from total RNA using poly-T-oligo-attached magnetic beads. After fragmentation, the first strand cDNA was synthesized using random hexamer primers, followed by the second strand cDNA synthesis. The library was checked with Qubit and real-time PCR for quantification and bioanalyzer for size distribution detection. Quantified libraries were pooled and sequenced on the NovaSeq 6000 S4 (Illumina). Differential expression analysis of two conditions/groups was performed using counted reads and the DESeq2 R package^67. Pathway enrichment analyses were performed as indicated in quantification and statistical analysis.
Details of all statistical analyses performed can be found in the figure legends. Data were expressed as mean±standard error of the mean (SEM) unless stated otherwise. Representative western blots are shown. For metabolomics data, MetaboAnalyst 5.0^66 was used to analyse, perform statistics, and visualise the results. Autoscaling of features (metabolites) was used for heatmap generation. One-way ANOVA corrected for multiple comparisons by the Tukey statistical test was used and a p.adjusted<0.05 was set as the cut-off. For proteomics data, protein signal intensity was converted to a log2 scale and biological replicates were grouped by experimental condition. Protein-wise linear models combined with empirical Bayes statistics were used for the differential expression analyses. The Bioconductor package limma was used to carry out the analysis using an R based online tool^68. […] The proteomics cut-offs for analysis were a log2FC of 0.5 and a false discovery rate (FDR)<0.05, determined using t statistics. RNA seq cut-offs were set to log2FC of 1 and an FDR<0.05. Overrepresentation analysis (ORA) of significant changes were assessed using Enrichr^4 and the Bioconductor package clusterProfiler 4.0 in R (version 3.6.1). Further information on this visualisation method is available^69. Emapplots were generated using enrichplot package in R (version 3.6.1). GSEA analysis of RNAseq was performed using the Broad Institutes GSEA 4.1.070. […]

mice = experiment: LPS-induced inflammation model, serum IFN-β; type: in vivo, mouse; details: 50 mg/kg intraperitoneally 1 hour before LPS 2.5 mg/kg, blood 2 hours later
Method: 6-week-old male mice were used, and littermates were randomly assigned to experimental groups. Compounds were resuspended in 10% DMSO followed by 90% cyclodextrin/PBS (20% w/v). Mice were injected intraperitoneally with vehicle, FHIN1 or DMF (both 50 mg/kg) at a volume of 200 μl per injection. 1 hour later, mice were injected intraperitoneally with PBS or LPS from E. coli (2.5 mg/kg, Sigma) at a volume of 100 μl per injection. 2 hours later, mice were euthanised and blood was harvested retro-orbitally. Blood was allowed to clot for 30 mins at room temperature before it was centrifuged at 5000×g for 10 mins at 4° C. The serum was removed and IFN-β concentration was determined by ELISA. DuoSet ELISA kits for IL-1β, TNFα, IL-6, IL-10, and GDF15 were purchased from R&D Systems and were carried out according to the manufacturer's instructions with appropriately diluted cell supernatants added to each plate in duplicate or triplicate. IFN-β was determined using DuoSet ELISA kit from R&D Systems or Abcam (ab252363). […] Absorbance at 450 nm was quantified using a FLUOstar Optima plate reader. Corrected absorbance values were calculated by subtracting the background absorbance, and cytokine concentrations were subsequently obtained by extrapolation from a standard curve plotted on GraphPad Prism 9.2.0.

Compound | Fos expression (RNA seq) (BMDMs; BMDMs pre-treated vs DMSO) | Jun expression (RNA seq) (BMDMs; BMDMs pre-treated vs DMSO) | other ISGs, such as Lcn2 (RNAseq) (BMDMs; BMDMs pre-treated vs DMSO) | ERK1/2 cascade and PI3K signalling (shared transcriptomic changes) (BMDMs) | amino acid metabolism and transport, and autophagy transcripts (BMDMs) | LPS-induced IFN-β release into the serum (mice) | Ifnb1 (IFN-β) expression and several interferon-stimulated genes (Irf1, Ifih1, Rsad2, Ifit2), RNAseq (BMDMs; BMDMs pre-treated vs DMSO) | NRF2 and ATF4 stress response (BMDMs; BMDMs pre-treated vs DMSO) | TNF-α signalling (overrepresentation analysis of RNAseq) (BMDMs; BMDMs pre-treated vs DMSO) | expression of HRI stress response, amino acid metabolism and tRNA aminoacylation (GSEA) (BMDMs; BMDMs pre-treated vs DMSO) | expression of inflammatory pathways, including IL-1 and IL-10 signalling (GSEA) (BMDMs; BMDMs pre-treated vs DMSO) | genes associated with metabolism (GSEA) (BMDMs; BMDMs pre-treated vs DMSO)
COC(=O)/C=C/C(=O)OC [DMF, dimethyl fumarate] | not reduced | reduced | suppressed | strong downregulation | increased | no effect | – | – | – | – | – | –
CCOC(=O)[C@@]12CCCC=C1N(Cc1ccc(-c3ccccc3)cc1)C(=O)[C@H]2CC(=O)NC [FHIN1, Fumarate hydratase-IN-1] | not reduced | reduced | suppressed | strong downregulation | increased | increased | upregulation | activation | most highly upregulated pathway | Increased expression | decreased | suppression
